Test results taken from patent publication EP4768484A1, “HETEROCYCLIC FUSED RING COMPOUND, AND COMPOSITION AND USE THEREOF” (Shenzhen TargetRx, Inc., priority 2023, dated 2025).

Experiments:
Type in all cases: cell-based
Ba/F3 BCR-ABL1 V468F = molecular target: T1, Ba/F3 BCR-ABL1 V468F (Homo sapiens, UniProt P00519+P11274, V468F); assay: Cell growth inhibitory activity assay (CellTiter-Glo), Ba/F3 BCR-ABL1 V468F cells; details: 72 h, CTG cell viability
T1 construct: BCR (N-terminal fusion partner of the oncoprotein); expressed in transfected cells; host or cells: Ba/F3 (lentiviral transduction, monoclonal line)
Protocol: (§1) In this assay, the Celltiter-Glo (CTG) kit provided by Promega was used, and it is a homogeneous cell viability assay method. The cell viability of cultured cells was measured by quantifying ATP. K562 cells were purchased from Nanjing Kebai, product number CBP60529; Ba/F3 parental cells were purchased from RIKEN BRC, product number RCB0805; other cells containing BCR-ABL1 WT, BCR-ABL1 T315I, BCR-ABL1 T315M, BCR-ABL1 Y253H/E255K, BCR-ABL1 E255V/T3151, BCR-ABL1 A424T, BCR-ABL1 A337V, BCR-ABL1 P465S, BCR-ABL1 V468F, and BCR-ABL1 I502L were all monoclonal engineered cell lines obtained by transducting Ba/F3 parental cells with the lentivirus plasmids containing WT or corresponding mutated BCR-ABL1.
(§2) The steps of cell viability assay are as follows: • a) Cells in logarithmic growth phase were collected. Cell suspension was prepared and the cells were counted. Concentration of the cells was calculated. • b) The cell suspension was diluted to the required concentration and then added to the middle wells of a 96-well plate, and PBS was added to the edge wells. The wells with no cells and only culture medium were used as blank controls. • c) In addition to the cell plate used for compound analysis, another 96-well plate was prepared as a T0 plate, and 3-6 blank wells and 3-6 cell wells were added. The next day, CTG was used to test the cell viability as the T0 viability value of the cells. • d) The cell plate was incubated at 37 °C in a 5% CO2 incubator overnight. • e) The next day, each concentration of a compound subjected to a gradient dilution was added, and the cell plate was incubated at 37 °C in a 5% CO2 incubator for 72 h. The wells with no compound and only 0.5% DMSO were used as positive controls for cell growth. • f) CTG reagent (CellTiter-Glo kit) was added according to the manufacturer's instructions to test the cell viability value. • g) The plate was read using Biotek cytation3.0 microplate reader and the data were exported. • h) IC50 was calculated using GraphPad Prism 7.0 software.
(§3) The IC50 (half-maximal inhibitory concentration) of the compound was obtained using the following nonlinear fitting formula: Y = Bottom + (Top−Bottom)/(1+10^(∧)((LogIC50−X)*HillSlope)) [formula] • X: Log value of the compound concentration • Y: Inhibition rate (% inhibition) • Top: Maximum response • Bottom: Baseline response • HillSlope: Slope of the curve
(§4) The formula for calculating cell inhibition rate (inhibition rate %) was: [formula]

Ba/F3 BCR-ABL1 WT = molecular target: T2, Ba/F3 BCR-ABL1 WT (Homo sapiens, UniProt P00519+P11274); assay: Cell growth inhibitory activity assay (CellTiter-Glo), Ba/F3 BCR-ABL1 WT cells; details: 72 h, CTG cell viability
T2 construct: BCR (N-terminal fusion partner of the oncoprotein); expressed in transfected cells; host or cells: Ba/F3 (lentiviral transduction, monoclonal line)
How it was run: (§5)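 Compound dilutions applied for 72 h (37 °C, 5% CO2) to overnight-plated Ba/F3 cells, parental or engineered to express WT/mutant BCR-ABL1. ATP-based CellTiter-Glo luminescence read, referenced to day-0 viability and 0.5% DMSO wells; IC50 fitted by four-parameter logistic curve.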

Ba/F3 parental cells = assay: Cell growth inhibitory activity assay (CellTiter-Glo), Ba/F3 parental cells; details: Mus musculus, BaF3, 72 h, CTG cell viability, read-out: IC50 Ba/F3 BCR-ABL1 Parental
How it was run: as §5

Ba/F3 BCR-ABL1 P465S = molecular target: T3, Ba/F3 BCR-ABL1 P465S (Homo sapiens, UniProt P00519+P11274, P465S); assay: Cell growth inhibitory activity assay (CellTiter-Glo), Ba/F3 BCR-ABL1 P465S cells; details: 72 h, CTG cell viability
T3 construct: BCR (N-terminal fusion partner of the oncoprotein); expressed in transfected cells; host or cells: Ba/F3 (lentiviral transduction, monoclonal line)
Protocol: as §1, §2, §3, §4

Ba/F3 BCR-ABL1 A337V = molecular target: T4, Ba/F3 BCR-ABL1 A337V (Homo sapiens, UniProt P00519+P11274, A337V); assay: Cell growth inhibitory activity assay (CellTiter-Glo), Ba/F3 BCR-ABL1 A337V cells; details: 72 h, CTG cell viability
T4 construct: BCR (N-terminal fusion partner of the oncoprotein); expressed in transfected cells; host or cells: Ba/F3 (lentiviral transduction, monoclonal line)
Protocol: as §1, §2, §3, §4

K562 cells = assay: Cell growth inhibitory activity assay (CellTiter-Glo), K562 cells; details: Homo sapiens, 72 h, CTG cell viability
How it was run: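 K562 cells in logarithmic growth were counted, diluted and plated in 96-well plates, with medium-only blanks and a separate T0 plate read by CTG the following day. After overnight incubation, graded compound concentrations were added for 72 h, with 0.5% DMSO wells as growth controls. Luminescence was read on a Biotek cytation3.0, and IC50 came from nonlinear fitting in GraphPad Prism 7.0.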

[1] = molecular target: T5, Ba/F3 BCR-ABL1 Y253H/E255K (Homo sapiens, UniProt P00519+P11274, E255K/Y253H); assay: Cell growth inhibitory activity assay (CellTiter-Glo), Ba/F3 BCR-ABL1 Y253H/E255K cells; details: 72 h, CTG cell viability
T5 construct: BCR (N-terminal fusion partner of the oncoprotein); expressed in transfected cells; host or cells: Ba/F3 (lentiviral transduction, monoclonal line)
How it was run: as §5

Ba/F3 BCR-ABL1 A424T = molecular target: T6, Ba/F3 BCR-ABL1 A424T (Homo sapiens, UniProt P00519+P11274, A424T); assay: Cell growth inhibitory activity assay (CellTiter-Glo), Ba/F3 BCR-ABL1 A424T cells; details: 72 h, CTG cell viability
T6 construct: BCR (N-terminal fusion partner of the oncoprotein); expressed in transfected cells; host or cells: Ba/F3 (lentiviral transduction, monoclonal line)
Protocol: as §1, §2, §3, §4

Ba/F3 BCR-ABL1 I502L = molecular target: T7, Ba/F3 BCR-ABL1 I502L (Homo sapiens, UniProt P00519+P11274, I502L); assay: Cell growth inhibitory activity assay (CellTiter-Glo), Ba/F3 BCR-ABL1 I502L cells; details: 72 h, CTG cell viability
T7 construct: BCR (N-terminal fusion partner of the oncoprotein); expressed in transfected cells; host or cells: Ba/F3 (lentiviral transduction, monoclonal line)
Protocol: as §1, §2, §3, §4

[2] = molecular target: T8, Ba/F3 BCR-ABL1 E255V/T315I (Homo sapiens, UniProt P00519+P11274, E255V/T315I); assay: Cell growth inhibitory activity assay (CellTiter-Glo), Ba/F3 BCR-ABL1 E255V/T315I cells; details: 72 h, CTG cell viability
T8 construct: BCR (N-terminal fusion partner of the oncoprotein); expressed in transfected cells; host or cells: Ba/F3 (lentiviral transduction, monoclonal line)
How it was run: as §5

Ba/F3 BCR-ABL1 T315I = molecular target: T9, Ba/F3 BCR-ABL1 T315I (Homo sapiens, UniProt P00519+P11274, T315I); assay: Cell growth inhibitory activity assay (CellTiter-Glo), Ba/F3 BCR-ABL1 T315I cells; details: 72 h, CTG cell viability
T9 construct: BCR (N-terminal fusion partner of the oncoprotein); expressed in transfected cells; host or cells: Ba/F3 (lentiviral transduction, monoclonal line)
How it was run: as §5

Ba/F3 BCR-ABL1 T315M = molecular target: T10, Ba/F3 BCR-ABL1 T315M (Homo sapiens, UniProt P00519+P11274, T315M); assay: Cell growth inhibitory activity assay (CellTiter-Glo), Ba/F3 BCR-ABL1 T315M cells; details: 72 h, CTG cell viability
T10 construct: BCR (N-terminal fusion partner of the oncoprotein); expressed in transfected cells; host or cells: Ba/F3 (lentiviral transduction, monoclonal line)
How it was run: as §5

IC50 (K562 cells) [µM]	Structure (SMILES)	IC50 (Ba/F3 BCR-ABL1 V468F) [µM]	IC50 (Ba/F3 BCR-ABL1 WT) [µM]	IC50 (Ba/F3 parental cells) [µM]	IC50 (Ba/F3 BCR-ABL1 P465S) [µM]	IC50 (Ba/F3 BCR-ABL1 A337V) [µM]	IC50 [1] [µM]	IC50 (Ba/F3 BCR-ABL1 A424T) [µM]	IC50 (Ba/F3 BCR-ABL1 I502L) [µM]	IC50 [2] [µM]	IC50 (Ba/F3 BCR-ABL1 T315I) [µM]	IC50 (Ba/F3 BCR-ABL1 T315M) [µM]
≤ 0.005	CCn1cc2c(n1)-c1cc(-c3cc(C(=O)Nc4ccc(OC(F)(F)Cl)cc4)cc4nc5n(c34)[C@H](C)COC5)cnc1C2 [T-18, (R)-N-(4-(chlorodifluoromethoxy)phenyl)-6-(2-ethyl-2,4-dihydropyrazolo[3',4':3,4]cyclopenta[1,2-b]pyridin-7-yl)-4-methyl-3,4-dihydro-1H-benzo[4,5]imidazo[2,1-c][1,4]oxazine-8-carboxamide]	0.005 to 0.05	≤ 0.005	> 1	0.005 to 0.05	0.005 to 0.05	≤ 0.005	0.005 to 0.05	0.005 to 0.05	≤ 0.005	≤ 0.005	> 1
≤ 0.005	Cc1cc(C)nc(-n2cc3c(n2)-c2cc(-c4cc(C(=O)Nc5ccc(OC(F)(F)Cl)cc5)cc5nc6n(c45)[C@H](C)COC6)cnc2C3)n1 [T-76, (R)-N-(4-(chlorodifluoromethoxy)phenyl)-6-(2-(4,6-dimethylpyrimidin-2-yl)-2,4-dihydropyrazolo[3',4':3,4]cyclopenta[1,2-b]pyridin-7-yl)-4-methyl-3,4-dihydro-1H-benzo[4,5]imidazo[2,1-c][1,4]oxazine-8-carboxamide]	0.05 to 1	≤ 0.005	> 1	0.05 to 1	0.05 to 1	≤ 0.005	≤ 0.005	0.005 to 0.05	≤ 0.005	≤ 0.005	≤ 0.005
≤ 0.005	[2H]C([2H])([2H])C([2H])(n1cc2c(n1)-c1cc(-c3cc(C(=O)Nc4ccc(OC(F)(F)Cl)cc4)cc4nc5n(c34)[C@H](C)COC5)cnc1C2)C([2H])([2H])[2H] [T-54]	0.005 to 0.05	≤ 0.005	> 1	0.005 to 0.05	0.005 to 0.05	≤ 0.005	0.005 to 0.05	0.005 to 0.05	≤ 0.005	≤ 0.005	> 1
≤ 0.005	C[C@@H]1COCc2nc3cc(C(=O)Nc4ccc(OC(F)(F)Cl)cc4)cc(-c4cnc5c(c4)-c4nn(C6COC6)cc4C5)c3n21 [T-52, (R)-N-(4-(chlorodifluoromethoxy)phenyl)-4-methyl-6-(2-(oxetan-3-yl)-2,4-dihydropyrazolo[3',4':3,4]cyclopenta[1,2-b]pyridin-7-yl)-3,4-dihydro-1H-benzo[4,5]imidazo[2,1-c] [1,4]oxazine-8-carboxamide]	0.005 to 0.05	≤ 0.005	> 1	0.05 to 1	0.05 to 1	0.005 to 0.05	0.005 to 0.05	0.005 to 0.05	≤ 0.005	≤ 0.005	> 1
≤ 0.005	C[C@@H]1COCc2nc3cc(C(=O)Nc4ccc(OC(F)(F)Cl)cc4)cc(-c4cnc5c(c4)C(=O)N(C)C5)c3n21 [T-21, (R)-N-(4-(chlorodifluoromethoxy)phenyl)-4-methyl-6-(6-methyl-5-oxo-6,7-dihydro-5H-pyrrolo[3,4-b]pyridin-3-yl)-3,4-dihydro-1H-benzo[4,5]imidazo[2,1-c][1,4]oxazine-8-carboxamide]	0.05 to 1	≤ 0.005	> 1	0.05 to 1	0.05 to 1	0.005 to 0.05	0.05 to 1	0.005 to 0.05	0.005 to 0.05	0.005 to 0.05	> 1
≤ 0.005	[2H]C([2H])([2H])N1Cc2ncc(-c3cc(C(=O)Nc4ccc(OC(F)(F)Cl)cc4)cc4nc5n(c34)[C@H](C)COC5)cc2C1=O [T-31, (R)-N-(4-(chlorodifluoromethoxy)phenyl)-4-methyl-6-(6-(methyl-d3)-5-oxo-6,7-dihydro-5H-pyrrolo[3,4-b]pyridin-3-yl)-3,4-dihydro-1H-benzo[4,5]imidazo[2,1-c][1,4]oxazine-8-carboxamide]	0.005 to 0.05	≤ 0.005	> 1	0.05 to 1	0.05 to 1	0.005 to 0.05	0.005 to 0.05	0.05 to 1	0.005 to 0.05	0.005 to 0.05	0.005 to 0.05
